Values joined by “and” are separate entries in the source; they are usually repeats but may differ in a detail not shown here. Equal values may be shown once. Read-outs that look alike come from different tables or passages of the source.
How the values were obtained:
Listeria monocytogenes [1] = type: cell-based
[2] = tested on: background microbial load (LB load); experiment: Log reduction analysis of background bacteria on inoculated Romaine lettuce; type: cell-based; conditions: after each dip, in log units, No treatment 4.81
Non-selective mix = experiment: Suspension tests, non-selective agar; type: cell-based, E. coli O157:H7, sv. Typhimurium, and Listeria monocytogenes; set-up: key to Average log reduction: * indicates a sample in which no bacteria grew, so no fold reduction may be calculated; conditions: for Average log reduction: vs water control
E. coli O157:H7 = experiment: Suspension tests, E. coli; type: cell-based; set-up: key to Average log reduction: * indicates a sample in which no bacteria grew, so no fold reduction may be calculated; conditions: for Average log reduction: vs water control
Salmonella = experiment: Suspension tests, Salmonella; type: cell-based, sv. Typhimurium; set-up: key to Average log reduction: * indicates a sample in which no bacteria grew, so no fold reduction may be calculated; conditions: for Average log reduction: vs water control
Listeria monocytogenes [3] = experiment: Suspension tests, Listeria; type: cell-based; set-up: key to Average log reduction: * indicates a sample in which no bacteria grew, so no fold reduction may be calculated; conditions: for Average log reduction: vs water control
[4] = tested on: microbial load (APC) of chopped Romaine lettuce; type: cell-based
[5] = tested on: microbial load (Total Aerobic Plate Count) of raw, unwashed leafy vegetables; type: cell-based
[6] = tested on: background microflora in wash water; experiment: Reduction of bacteria from wash water using ozone; type: cell-based
Source text: Water containing high levels of background microflora was generated by dipping 200 g of lettuce in 2 L of water for 20 seconds. This lettuce was discarded and another 200 g of lettuce was dipped in the same water for 20 seconds. This was repeated for a total of 10 dips (referred to as Control in Table 34 below). Water with dissolved Ozone was then generated using a ClearWater Tech MSW245 Mobile Ozone Generator (San Luis Obispo, Calif.). The control microflora containing water was then mixed with this ‘Ozonated water’ at various mix levels ranging from 10 to 60% of the ozonated water with the control microflora containing water. First, 10% ozonated water was blended with 90% microflora containing water and after 20 seconds, 100 ml of water was removed into a sterile water sample bottle. This protocol was repeated in triplicate, as well as testing 20%, 30%, 40%, 50%, and 60% blends of ozonated water combined with the microflora containing water. In addition, 200 g of lettuce was added to the ozonated solution for 20 seconds and 100 ml of water was then collected in a sterile water sample bottle. This was also repeated in triplicate. The samples were serially diluted using PB as the diluent and plated on Total Plate Count agar. The plates were incubated for 48 hours at 30° C. for enumeration of the bacteria present following treatment.
The theoretical dilution reduction in Table 34 was calculated based on the number of cells that would be present if they were diluted in water or buffer (i.e. not a solution that would cause cell death or injury).

## [O][Cl+][O-] [ClO2 dip, chlorine dioxide]
Listeria monocytogenes [1]
  Listeria Load (%): 2.87% and 4.29%
[2]; Treatment 1 (ClO2, Cl2, PAA)
  Avg. Bacterial Load: 1.56
[2]; Treatment 2 (ClO2, PAA, Cl2)
  Avg. Bacterial Load: 2.41
Non-selective mix
  % bacteria killed: 100.000%
Non-selective mix; 30 seconds at 4° C., Water 1.00 × 10^7
  Average (bacterial load): 0.00
Non-selective mix; 30 seconds at 4° C., listed as 10 ppm chlorine dioxide
  % bacteria killed: 100%
Non-selective mix; 30 seconds at 4° C., listed as Chlorine dioxide (10 ppm)
  % bacteria killed: 100%
Non-selective mix; 30 seconds at 4° C.
  Average log reduction: *
Non-selective mix; 30 seconds at 15° C., Water 8.46 × 10^6
  Average (bacterial load): 0.00
Non-selective mix; 30 seconds at 15° C., listed as 10 ppm chlorine dioxide
  % bacteria killed: 100%
Non-selective mix; 30 seconds at 15° C., listed as Chlorine dioxide (10 ppm)
  % bacteria killed: 100%
Non-selective mix; 30 seconds at 15° C.
  Average log reduction: *
Non-selective mix; 30 seconds at 40° C., Water 8.30 × 10^6
  Average (bacterial load): 1.00 × 10^2
Non-selective mix; 30 seconds at 40° C., listed as 10 ppm chlorine dioxide
  % bacteria killed: 99.9988%
Non-selective mix; 30 seconds at 40° C., listed as Chlorine dioxide (10 ppm)
  % bacteria killed: 99.9988%
Non-selective mix; 30 seconds at 40° C.
  Average log reduction: 4.92
Non-selective mix; 90 seconds at 4° C., Water 6.22 × 10^6
  Average (bacterial load): 2.00 × 10^0
Non-selective mix; 90 seconds at 4° C., listed as 10 ppm chlorine dioxide
  % bacteria killed: 100%
Non-selective mix; 90 seconds at 4° C., listed as Chlorine dioxide (10 ppm)
  % bacteria killed: 100%
Non-selective mix; 90 seconds at 4° C.
  Average log reduction: 6.49
Non-selective mix; 90 seconds at 15° C., Water 1.21 × 10^7
  Average (bacterial load): 2.00 × 10^1
Non-selective mix; 90 seconds at 15° C., listed as 10 ppm chlorine dioxide
  % bacteria killed: 99.9998%
Non-selective mix; 90 seconds at 15° C., listed as Chlorine dioxide (10 ppm)
  % bacteria killed: 99.9998%
Non-selective mix; 90 seconds at 15° C.
  Average log reduction: 5.78
Non-selective mix; 90 seconds at 40° C., Water 9.76 × 10^6
  Average (bacterial load): 7.20 × 10^4
Non-selective mix; 90 seconds at 40° C., listed as 10 ppm chlorine dioxide
  % bacteria killed: 99.2623%
Non-selective mix; 90 seconds at 40° C., listed as Chlorine dioxide (10 ppm)
  % bacteria killed: 99.2623%
Non-selective mix; 90 seconds at 40° C.
  Average log reduction: 2.13
E. coli O157:H7; 30 seconds at 4° C.
  % bacteria killed: 100%
  Average log reduction: *
E. coli O157:H7; 30 seconds at 4° C., Water 5.72 × 10^6
  Average (bacterial load): 0.00
E. coli O157:H7; 30 seconds at 15° C.
  % bacteria killed: 100%
  Average log reduction: *
E. coli O157:H7; 30 seconds at 15° C., Water 5.96 × 10^6
  Average (bacterial load): 0.00
E. coli O157:H7; 30 seconds at 40° C.
  % bacteria killed: 99.9993%
  Average log reduction: 5.17
E. coli O157:H7; 30 seconds at 40° C., Water 3.22 × 10^6
  Average (bacterial load): 2.20 × 10^1
E. coli O157:H7; 90 seconds at 4° C.
  % bacteria killed: 100%
  Average log reduction: *
E. coli O157:H7; 90 seconds at 4° C., Water 3.96 × 10^6
  Average (bacterial load): 0.00
E. coli O157:H7; 90 seconds at 15° C.
  % bacteria killed: 100%
  Average log reduction: *
E. coli O157:H7; 90 seconds at 15° C., Water 5.74 × 10^6
  Average (bacterial load): 0.00
E. coli O157:H7; 90 seconds at 40° C.
  % bacteria killed: 99.1083%
  Average log reduction: 2.05
E. coli O157:H7; 90 seconds at 40° C., Water 3.14 × 10^6
  Average (bacterial load): 2.80 × 10^4
Salmonella; 30 seconds at 4° C.
  % bacteria killed: 100%
  Average log reduction: *
Salmonella; 30 seconds at 4° C., Water 5.32 × 10^6
  Average (bacterial load): 0.00
Salmonella; 30 seconds at 15° C.
  % bacteria killed: 100%
  Average log reduction: *
Salmonella; 30 seconds at 15° C., Water 2.70 × 10^6
  Average (bacterial load): 0.00
Salmonella; 30 seconds at 40° C.
  % bacteria killed: 99.9995%
  Average log reduction: 5.30
Salmonella; 30 seconds at 40° C., Water 4.36 × 10^6
  Average (bacterial load): 2.20 × 10^1
Salmonella; 90 seconds at 4° C.
  % bacteria killed: 100%
  Average log reduction: *
Salmonella; 90 seconds at 4° C., Water 1.57 × 10^6
  Average (bacterial load): 0.00
Salmonella; 90 seconds at 15° C.
  % bacteria killed: 100%
  Average log reduction: *
Salmonella; 90 seconds at 15° C., Water 4.54 × 10^6
  Average (bacterial load): 0.00
Salmonella; 90 seconds at 40° C.
  % bacteria killed: 99.4879%
  Average log reduction: 2.29
Salmonella; 90 seconds at 40° C., Water 7.42 × 10^6
  Average (bacterial load): 3.80 × 10^4
Listeria monocytogenes [3]; 30 seconds at 4° C.
  % bacteria killed: 100%
  Average log reduction: *
Listeria monocytogenes [3]; 30 seconds at 4° C., Water 4.96 × 10^5
  Average (bacterial load): 0.00
Listeria monocytogenes [3]; 30 seconds at 15° C.
  % bacteria killed: 100%
  Average log reduction: *
Listeria monocytogenes [3]; 30 seconds at 15° C., Water 2.24 × 10^6
  Average (bacterial load): 0.00
Listeria monocytogenes [3]; 30 seconds at 40° C.
  % bacteria killed: 99.9999%
  Average log reduction: 6.06
Listeria monocytogenes [3]; 30 seconds at 40° C., Water 2.32 × 10^6
  Average (bacterial load): 2.00 × 10^0
Listeria monocytogenes [3]; 90 seconds at 4° C.
  % bacteria killed: 100%
  Average log reduction: *
Listeria monocytogenes [3]; 90 seconds at 4° C., Water 2.06 × 10^5
  Average (bacterial load): 0.00
Listeria monocytogenes [3]; 90 seconds at 15° C.
  % bacteria killed: 100%
  Average log reduction: *
Listeria monocytogenes [3]; 90 seconds at 15° C., Water 7.14 × 10^4
  Average (bacterial load): 0.00
Listeria monocytogenes [3]; 90 seconds at 40° C.
  % bacteria killed: 96.080%
  Average log reduction: 1.41
Listeria monocytogenes [3]; 90 seconds at 40° C., Water 2.50 × 10^6
  Average (bacterial load): 9.80 × 10^4

## CC(=O)OO [PAA, peroxyacetic acid]
[4]
  log unit reduction in microbial load after each individual step: 2.4 log unit

## OO [Treatment H2O2, hydrogen peroxide]
[5]
  APC (CFU/g): 5,800 CFU/g

## O=[O+][O-] [ozone solution, ozone]
[6]; lettuce 20 sec in ozone solution, initial ozone 2.2 ppm, 20 sec in water 19266
  Avg. CFU/ml: 6900 CFU/ml
[6]; ozone solution (initial 1.8 ppm) mixed with microflora containing water, Control after 10 dips in water 300000, listed as 10% ozone solution, After mixing 10% ozone solution
  Avg. CFU/ml: 300000 CFU/ml
[6]; ozone solution (initial 1.8 ppm) mixed with microflora containing water, Control after 10 dips in water 300000, listed as 20% ozone solution, After mixing 20% ozone solution
  Avg. CFU/ml: 185333 CFU/ml
[6]; ozone solution (initial 1.8 ppm) mixed with microflora containing water, Control after 10 dips in water 300000, listed as 30% ozone solution, After mixing 30% ozone solution
  Avg. CFU/ml: 174667 CFU/ml
[6]; ozone solution (initial 1.8 ppm) mixed with microflora containing water, Control after 10 dips in water 300000, listed as 40% ozone solution, After mixing 40% ozone solution
  Avg. CFU/ml: 121667 CFU/ml
[6]; ozone solution (initial 1.8 ppm) mixed with microflora containing water, Control after 10 dips in water 300000, listed as 50% ozone solution, After mixing 50% ozone solution
  Avg. CFU/ml: 87667 CFU/ml
[6]; ozone solution (initial 1.8 ppm) mixed with microflora containing water, Control after 10 dips in water 300000, listed as 60% ozone solution, After mixing 60% ozone solution
  Avg. CFU/ml: 70333 CFU/ml

Source: patent publication US10993448B2, “Method for sanitizing fresh produce” (Dole Fresh Vegetables, Inc., priority 2014, dated 2021)
